In US20130197085A1, “AGENT AND METHOD FOR STABILIZING MEMBRANE PROTEIN” (priority 2007, published 2013):

What was measured:
CFTRΔF508 = CFTRΔF508 (Homo sapiens, UniProt P13569, DEL508-508); conditions: Non-Patent Document 2; cited from earlier work
[1] = target: T1, BSEP on canalicular membrane (Rattus norvegicus, UniProt O70127); test: Transport assay using canalicular membrane vesicles (CMVs) from treated rats; assay type: in vivo, SD rat
T1 construct: from tissue; host or cells: liver of male SD rats: in vivo for A27, canalicular membrane vesicles for A28 and A29
T1 sequence (O70127 1-1321): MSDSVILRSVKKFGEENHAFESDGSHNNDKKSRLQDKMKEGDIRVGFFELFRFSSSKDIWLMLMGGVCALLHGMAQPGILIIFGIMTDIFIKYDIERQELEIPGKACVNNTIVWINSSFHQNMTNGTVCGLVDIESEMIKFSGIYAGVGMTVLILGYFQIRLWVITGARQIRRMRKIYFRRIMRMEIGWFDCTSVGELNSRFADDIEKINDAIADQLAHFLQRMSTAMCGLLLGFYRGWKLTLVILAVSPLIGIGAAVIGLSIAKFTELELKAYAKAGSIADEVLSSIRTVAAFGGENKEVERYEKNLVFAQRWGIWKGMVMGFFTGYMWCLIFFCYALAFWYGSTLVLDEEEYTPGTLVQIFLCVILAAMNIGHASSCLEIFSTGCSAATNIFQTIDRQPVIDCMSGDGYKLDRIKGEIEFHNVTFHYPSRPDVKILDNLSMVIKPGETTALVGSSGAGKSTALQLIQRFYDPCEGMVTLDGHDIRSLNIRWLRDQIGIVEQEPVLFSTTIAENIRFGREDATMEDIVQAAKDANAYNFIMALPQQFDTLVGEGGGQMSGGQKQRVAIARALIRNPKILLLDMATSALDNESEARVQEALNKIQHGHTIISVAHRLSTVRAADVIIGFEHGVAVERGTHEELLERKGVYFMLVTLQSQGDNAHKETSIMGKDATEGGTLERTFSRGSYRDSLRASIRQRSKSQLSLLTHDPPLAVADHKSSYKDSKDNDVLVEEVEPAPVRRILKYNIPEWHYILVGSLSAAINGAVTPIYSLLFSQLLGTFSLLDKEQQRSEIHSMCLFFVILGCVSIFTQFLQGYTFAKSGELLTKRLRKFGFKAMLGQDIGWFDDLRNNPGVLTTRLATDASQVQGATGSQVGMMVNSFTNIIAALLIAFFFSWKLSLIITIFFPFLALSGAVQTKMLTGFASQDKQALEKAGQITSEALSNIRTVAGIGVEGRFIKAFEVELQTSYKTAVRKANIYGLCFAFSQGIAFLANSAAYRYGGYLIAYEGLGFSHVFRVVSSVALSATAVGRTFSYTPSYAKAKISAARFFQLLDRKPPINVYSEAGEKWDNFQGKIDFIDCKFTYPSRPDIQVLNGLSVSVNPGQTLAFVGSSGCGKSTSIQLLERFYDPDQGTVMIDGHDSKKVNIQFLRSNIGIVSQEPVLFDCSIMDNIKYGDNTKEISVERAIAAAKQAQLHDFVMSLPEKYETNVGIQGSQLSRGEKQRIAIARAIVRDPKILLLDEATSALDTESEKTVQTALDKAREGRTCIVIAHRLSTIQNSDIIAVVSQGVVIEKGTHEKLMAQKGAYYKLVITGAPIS
Protocol: […] 4PBA or a vehicle was given to a male SD rat (6- to 7-week-old) for 10 days, divided over 3 administrations. Canalicular membrane vesicles were prepared from the liver of the rat (Akita et al., Biochim Biophys Acta, 1511: 7-16, 2001), and they were then used in Western blotting and a transport assay. Such transport assay was carried out by a rapid filtration method (Hayashi et al., Biochim Biophys Acta, 1738: 54-62, 2005).

E297G BSEP mRNA = test: Measurement of BSEP mRNA level by real-time quantitative PCR in MDCKII cells; assay type: cell-based, human; conditions: 1 mM 4PBA, 24 hours; not statistically significant (P=0.20)
Protocol: (§1) MDCKII cells were dispersed on a 6-well plate, resulting in a density of 2.5×10^5 cells/well. After completion of the culture for 24 hours, the confluent cells were infected with recombinant adenoviruses having the cDNAs of wild-type, E297G and D482G BSEPs, and GFP, at 50 MOI. After completion of the infection, the cells were cultured for 24 hours. Thereafter, the cultured cells were treated with 1 mM 4PBA. After completion of the treatment for 24 hours, RNA was isolated using ISOGEN (Wako Pure Chemical Industries, Ltd.) in accordance with an instruction manual included therewith. A DNaseI treatment was carried out at 37° C. for 1 hour, and a reverse transcription reaction was then carried out (see Hayashi et al., Hepatology, 41: 916-924, 2005). The BSEP mRNA level was measured by real-time quantitative PCR according to an ordinary method. The quantitative PCR was carried out using the following primers.
(§2) It is to be noted that the expression of a BSEP gene in each reaction was standardized by the expression of GAPDH.

D482G BSEP mRNA = test: as above; assay type: cell-based, human; conditions: 1 mM 4PBA, 24 hours; not statistically significant (P=0.20)
Protocol: as §1, §2

wild-type BSEP mRNA = test: as above; assay type: cell-based, human; conditions: 1 mM 4PBA, 24 hours; not statistically significant (P=0.10)
Protocol: as §1, §2

[2] = tested on: MDCKII cells expressing GFP; test: Transcellular transport assay of [^3H] TC across MDCKII monolayer, GFP control cells; assay type: cell-based; conditions: 24 hours
Protocol: MDCKII cells were dispersed on a Transwell membrane insert (pore size: […]; Falcon) of a 24-well plate, resulting in a density of 1.5×10^5 cells/insert. Two days after the culture, the confluent cells were infected with recombinant adenoviruses having the cDNAs of wild-type, E297G and D482G BSEPs, and GFP, at 50 MOI. […] After completion of the treatment for 24 hours, a transcellular transport assay was carried out (see Mita et al., Am J Physiol Gastrointest Liver Physiol 290: G550-G556, 2006).
The apparent efflux clearance across the apical membrane (PSapical) was calculated by dividing a steady rate of the transcellular transport of [^3H] TC for 2 hours by the intracellular concentration of the [^3H] TC at the termination of the experiment (2 hours later).

Chain of CFTRΔF508 (P13569 with tags, fused parts or gaps DEL508-508): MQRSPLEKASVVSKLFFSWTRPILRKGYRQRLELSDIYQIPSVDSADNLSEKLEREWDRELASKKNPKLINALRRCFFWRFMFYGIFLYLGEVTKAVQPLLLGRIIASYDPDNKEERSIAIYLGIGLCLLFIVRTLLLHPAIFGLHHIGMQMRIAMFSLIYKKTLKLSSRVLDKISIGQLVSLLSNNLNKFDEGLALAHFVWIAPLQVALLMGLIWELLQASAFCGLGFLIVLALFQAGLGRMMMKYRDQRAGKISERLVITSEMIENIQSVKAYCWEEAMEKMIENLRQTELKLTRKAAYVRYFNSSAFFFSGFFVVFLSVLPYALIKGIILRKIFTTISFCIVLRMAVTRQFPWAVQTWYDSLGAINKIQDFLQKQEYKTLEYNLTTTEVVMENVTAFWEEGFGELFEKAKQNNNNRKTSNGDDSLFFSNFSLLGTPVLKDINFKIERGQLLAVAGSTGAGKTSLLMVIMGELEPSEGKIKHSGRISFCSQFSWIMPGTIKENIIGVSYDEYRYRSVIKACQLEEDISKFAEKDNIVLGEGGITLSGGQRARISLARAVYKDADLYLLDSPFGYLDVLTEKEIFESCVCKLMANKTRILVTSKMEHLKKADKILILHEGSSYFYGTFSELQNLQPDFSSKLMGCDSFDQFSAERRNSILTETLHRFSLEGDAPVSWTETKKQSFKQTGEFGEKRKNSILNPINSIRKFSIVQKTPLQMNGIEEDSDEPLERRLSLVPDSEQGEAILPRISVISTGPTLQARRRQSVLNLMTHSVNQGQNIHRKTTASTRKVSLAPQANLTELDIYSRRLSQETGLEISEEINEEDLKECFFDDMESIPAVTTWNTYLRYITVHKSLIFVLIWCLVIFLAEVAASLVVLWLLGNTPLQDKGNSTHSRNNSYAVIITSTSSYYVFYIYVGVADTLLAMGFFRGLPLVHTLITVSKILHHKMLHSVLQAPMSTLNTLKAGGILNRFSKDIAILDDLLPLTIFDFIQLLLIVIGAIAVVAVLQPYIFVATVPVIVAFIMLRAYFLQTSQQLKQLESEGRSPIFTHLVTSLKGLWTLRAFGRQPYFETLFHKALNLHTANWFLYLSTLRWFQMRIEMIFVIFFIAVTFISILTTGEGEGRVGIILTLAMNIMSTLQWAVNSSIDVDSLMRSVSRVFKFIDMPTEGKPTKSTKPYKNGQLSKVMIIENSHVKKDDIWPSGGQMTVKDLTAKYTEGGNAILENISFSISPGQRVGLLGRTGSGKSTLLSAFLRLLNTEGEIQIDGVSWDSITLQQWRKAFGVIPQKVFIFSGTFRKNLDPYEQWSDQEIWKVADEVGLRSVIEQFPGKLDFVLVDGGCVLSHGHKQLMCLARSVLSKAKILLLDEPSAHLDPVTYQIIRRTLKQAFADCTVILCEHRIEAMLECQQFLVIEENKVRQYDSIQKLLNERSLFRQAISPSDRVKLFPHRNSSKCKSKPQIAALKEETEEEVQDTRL

O=C(O)CCCc1ccccc1 [4PBA, 4-phenylbutyric acid]
expression of CFTRΔF508 on the cell membrane (CFTRΔF508): recovers its expression on the cell membrane
ATP-dependent uptake of [^3H] TC by CMVs, higher than CMVs from vehicle-treated rats ([1]; CMVs from SD rats treated at 0.6 g/kg/day for 10 days): 3 times
Vmax value of [^3H] TC uptake by CMVs ([1]; CMVs from SD rats treated with 4PBA at 0.6 g/kg/day for 10 days): 1,000±110
expression level of BSEP mRNA standardized by GAPDH mRNA (E297G BSEP mRNA): slightly increased
expression level of BSEP mRNA standardized by GAPDH mRNA (D482G BSEP mRNA): slightly increased
expression level of BSEP mRNA standardized by GAPDH mRNA (wild-type BSEP mRNA): slightly increased
efflux of [^3H] TC from the apical side to the base side ([2]; 1 mM): did not influence
efflux of [^3H] TC from the base side to the apical side ([2]; 1 mM): such effects were not observed
PSapical value ([2]; 4PBA treatment 1 mM): no changes
